Laboratory results published in publication PMC7866885 (PeerJ, 2021).

How the values were obtained:
Assay in all cases: DHFR activity, NADPH consumption at […] nm
Format in all cases: biochemical
[1] = target: T1, S. suis dihydrofolate reductase (SsDHFR) (Streptococcus suis, UniProt A0A0H3N4C4)
T1 construct: gene dyr; full-length dhfr in pET15b (NdeI/BamHI, N-terminal vector tag kept); clarified lysate of E. coli BL21(DE3), not purified
T1 sequence (A0A0H3N4C4 1-170): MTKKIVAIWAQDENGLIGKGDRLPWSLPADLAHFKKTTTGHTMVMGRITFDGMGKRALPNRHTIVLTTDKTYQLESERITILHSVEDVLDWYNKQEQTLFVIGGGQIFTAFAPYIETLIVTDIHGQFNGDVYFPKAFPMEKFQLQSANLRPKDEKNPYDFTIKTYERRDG

[2] = target: T1, S. suis dihydrofolate reductase (SsDHFR); conditions: 0.1 mM dihydrofolate, 0.1 mM NADPH, 50 mM TES pH 7.0; lysate
[3] = target: T1, S. suis dihydrofolate reductase (SsDHFR); conditions: 1 µM inhibitor; 0.1 mM dihydrofolate, 0.1 mM NADPH, 50 mM TES pH 7.0; lysate of overexpressing E. coli BL21(DE3), host DHFR background present

SMILES: COc1ccc(OC)c(NCc2ccc3nc(N)nc(N)c3c2Cl)c1 [MMV675968]
- remaining activity at 1 µM [1]: 2%

SMILES: NC(=O)C1=CN([C@@H]2O[C@H](COP(=O)(O)OP(=O)(O)OC[C@H]3O[C@@H](n4cnc5c(N)ncnc54)[C@H](OP(=O)(O)O)[C@@H]3O)[C@@H](O)[C@H]2O)C=CC1 [NADPH]
- DHFR activity, NADPH consumption at 340 nm [2]: DHFR uses NADPH as a cofactor for the conversion of dihydrofolate (DHF) to tetrahydrofolate (THF)

SMILES: CC1(C)N=C(N)N=C(N)N1c1ccc(Cl)cc1 [cycloguanil]
- % activity at 1 μM [3]: Trimethoprim, pyrimethamine, and cycloguanil were moderately effective at inhibiting SsDHFR

SMILES: CCc1nc(N)nc(N)c1-c1ccc(Cl)cc1 [pyrimethamine]
- % activity at 1 μM [3]: Trimethoprim, pyrimethamine, and cycloguanil were moderately effective at inhibiting SsDHFR
